For the first test, the target named is SOS1-KRas (G12C) (Homo sapiens (Human), UniProt Q07889). Description: SOS1-KRas (G12C) FRET Assay. It counts as binding.
Chain of SOS1-KRas (G12C) (Q07889 564-1049, stated change not applied): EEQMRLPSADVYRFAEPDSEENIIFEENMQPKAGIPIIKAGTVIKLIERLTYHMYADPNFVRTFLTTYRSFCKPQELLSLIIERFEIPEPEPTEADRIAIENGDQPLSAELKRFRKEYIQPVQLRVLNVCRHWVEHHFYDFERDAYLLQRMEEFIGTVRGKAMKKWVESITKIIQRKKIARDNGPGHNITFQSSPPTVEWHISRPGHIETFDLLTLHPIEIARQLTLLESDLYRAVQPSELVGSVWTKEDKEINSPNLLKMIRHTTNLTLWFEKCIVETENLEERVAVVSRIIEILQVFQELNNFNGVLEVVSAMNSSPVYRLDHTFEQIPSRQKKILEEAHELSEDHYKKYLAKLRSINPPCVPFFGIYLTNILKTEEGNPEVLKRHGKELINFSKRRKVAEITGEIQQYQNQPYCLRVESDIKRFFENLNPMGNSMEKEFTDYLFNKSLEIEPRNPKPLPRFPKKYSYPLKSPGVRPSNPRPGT
Conditions: not given
Take `C[C@@H](NC(=O)c1cc(N2CCn3nccc3C2)c(F)cc1NC1CCN(C)CC1)c1cccc(C(F)F)c1F` [Example 7, (R)—N-(1-(3-(difluoromethyl)-2-fluorophenyl)ethyl)-5-(6,7-dihydropyrazolo[1,5-a]pyrazin-5 (4H)-yl)-4-fluoro-2-((1-methylpiperidin-4-yl)amino)benzamide]: the IC50 worked out at 27.9 nM. That is a double-digit nanomolar value.

The compound `C[C@@H](NC(=O)c1cc(N2CC3CC(C2)O3)c(F)cc1NC1CCN(C)CC1)c1cccc(C(F)F)c1F` [Example 6, 5-(6-oxa-3-azabicyclo[3.1.1]heptan-3-yl)-N—((R)-1-(3-(difluoromethyl)-2-fluorophenyl)ethyl)-4-fluoro-2-((1-methylpiperidin-4-yl)amino)benzamide] yielded an IC50 of 88 nM.

Staying with this test, now noted: inhibition of SOS1:KRAS interaction; 0.5 nM His10-SOS1 (res. 564-1049), 2.5 nM GST-KRAS (res. 1-169, G12C); 2 hrs at RT.
The compound `C[C@@H](NC(=O)c1cc(N2C[C@H]3C[C@@H]2CO3)c(F)cc1NC1CCN(C)CC1)c1cccc(C(F)F)c1F` [Example 2, 5-((1R,4R)-2-oxa-5-azabicyclo[2.2.1]heptan-5-yl)-N—((R)-1-(3-(difluoromethyl)-2-fluorophenyl)ethyl)-4-fluoro-2-((1-methylpiperidin-4-yl)amino)benzamide] had a half-maximal inhibitory concentration (IC50) of 99.5 nM.

Compound `C[C@@H](NC(=O)c1cc(N2CCOCC2)c(C#N)cc1N[C@H]1CN2CCC1CC2)c1cccc(C(F)F)c1F` [Example 24, 4-cyano-N—((R)-1-(3-(difluoromethyl)-2-fluorophenyl)ethyl)-5-morpholino-2-(((R)-quinuclidin-3-yl)amino)benzamide] came in with an IC50 of 22.7 nM.

Compound `C[C@@H](NC(=O)c1cc(N2CCOCC2)c(F)cc1NCCN(C)C)c1cccc(C(F)F)c1F` [Example 48, (R)—N-(1-(3-(difluoromethyl)-2-fluorophenyl)ethyl)-2-((2-(dimethylamino)ethyl)amino)-4-fluoro-5-morpholinobenzamide] registered an IC50 of 63.8 nM.

For `C[C@@H](NC(=O)c1cc(C23CC(C2)C3)c(F)cc1N[C@@H]1CN2CCC1CC2)c1cccc(C(F)F)c1F` [Example 70, 5-(bicyclo[1.1.1]pentan-1-yl)-N—((R)-1-(3-(difluoromethyl)-2-fluorophenyl)ethyl)-4-fluoro-2-(((S)-quinuclidin-3-yl)amino)benzamide], the IC50 was 347 nM.

As to `C[C@@H](NC(=O)c1cc(O[C@H]2CCOC2)c(F)cc1NC1CCN(C)CC1)c1cccc(C(F)F)c1F` [Example 10, N—((R)-1-(3-(difluoromethyl)-2-fluorophenyl)ethyl)-4-fluoro-2-((1-methylpiperidin-4-yl)amino)-5-(((S)-tetrahydrofuran-3-yl)oxy)benzamide], inhibition was half-maximal at 71.6 nM (IC50). Against the preceding compound, the IC50 is about 4.8-fold lower.

`C[C@@H](NC(=O)c1cc(N2CCC(F)(F)C2)c(F)cc1N[C@H]1CN2CCC1CC2)c1cccc(C(F)F)c1F` [Example 27, N—((R)-1-(3-(difluoromethyl)-2-fluorophenyl)ethyl)-5-(3,3-difluoropyrrolidin-1-yl)-4-fluoro-2-(((R)-quinuclidin-3-yl)amino)benzamide] yielded an IC50 of 22.5 nM.

The record behind these values is patent US20250368634A1, “PHENYL AMIDE COMPOUNDS AND METHODS OF USE” (SCHRÖDINGER, INC., priority 2022, published 2025).
